Reference: patent US20160106439A1, “PNEUMATIC TOURNIQUET” (BIONUMERIK PHARMACEUTICALS, INC., priority 2013, published 2016)
“And” between values parts separate entries of the source, which are not always exact repeats. Identical values can stand only once. “Also recorded” adds a separate entry of the source. Like-named read-outs stand apart in the source and are kept apart here.

Tests used:
[1] = cited from earlier work
[2] = biological target: ROS1 kinase (Homo sapiens, UniProt P08922); experiment: ROS1 kinase assays; assay type: biochemical; design: Recombinant human ROS1 kinase (residues 1883-2347), containing an N-terminal GST tag; purchased SignalChem; host or cells: Sf9 insect cells (baculovirus)
[3] = biological target: T1, Recombinant human Trx (Homo sapiens, UniProt P10599); experiment: IEF PAGE of Trx incubated with Tavocept; assay type: binding; design: purchased Sigma (SigmaAldrich); host or cells: E. coli; settings: Tavocept 10 mM, 37° C.
T1 sequence (P10599 1-105): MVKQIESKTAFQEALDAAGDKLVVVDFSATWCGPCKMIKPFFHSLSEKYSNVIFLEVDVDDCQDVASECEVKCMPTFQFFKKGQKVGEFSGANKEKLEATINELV

[4] = system: Stage IV primary adenocarcinoma of the lung; experiment: Tavocept Phase III Clinical Trial (Interim Analysis); assay type: in vivo, patients
Source text: In the Tavocept Phase III Clinical Trial pre-specification was made through stratification factors including sex (i.e., male versus female) and taxane treatment (i.e., paclitaxel versus docetaxel). Eligible patients had not received prior drug treatment for their cancer, and inclusion in the trial was also allowed for patients who had relapsed following surgery for earlier stage disease as well as patients with central nervous system metastasis. A total of 540 patients were enrolled on the trial.
The primary endpoint of this study was overall survival (OS); defined as the time period from the date of patient randomization to the date of death due to any cause.
All patients received standard combination chemotherapy (taxane agent plus cisplatin) and either Tavocept or placebo.
The primary endpoint for analysis was the duration of overall survival, defined as the time from the date of randomization to the date of death due to any cause. The number of mortality events used for the final analysis depended upon the number of patients enrolled into the study (provided the sample size was adjusted at the interim analysis). For the primary analysis, the expected number of total mortality events was approximately 416 mortality events for a sample size of 575 patients.
The one-sided log-rank test was performed in order to allow the application of the adaptive methodology. Details of this 2-stage adaptive design are described below. Kaplan-Meier survival curves (including identification of censored observations) was presented by treatment group, as well as median survival times and their 95% confidence intervals.
The following specific endpoints were evaluated with pre-specified analyses in order to evaluate for potential clinically and statistically significant differences between Tavocept- and placebo-treated patients.
The incidence of cisplatin renal toxicity and anemia, and the impact of emesis on daily life were analyzed using the Cochran-Mantel-Haenszel (CMH) tests for proportions. The CMH test was applied in the comparison between Tavocept and placebo where adjustment for prognostic factors is clinically important (e.g., adjusting for baseline characteristics). To control for Type I error due to multiple comparisons of safety data, a nominal, 2-sided p-value of less than 0.0125 was used for each comparison of renal toxicity, anemia, and emesis.

[5] = biological target: T2, Recombinant human ERCC1 (Homo sapiens, UniProt P07992); experiment: Tavocept-derived mesna adducts on ERCC1 (trypsin digest, LC-MS); assay type: binding; settings: 20 mM Tavocept, LC-MS of tryptic fragments
T2 construct: 6xHis (N); purchased Creative BioMart; host or cells: E. coli
Experimental: Recombinant human ERCC1 (1 mg; 27.8 nanomoles, Creative BioMart) was reduced using a vast excess of dithiothreitol (DTT, 100 μL of a 500 mM stock) in ammonium bicarbonate (40 mM, pH 8.0) at 37° C. for 75 minutes (total reaction volume was 900 μL). […] Each 800 μL reaction was then chromatographed over a NAP10 column. This step removed unreacted Tavocept and was used for the buffer control simply to ensure that both samples received the same handling/manipulation during the course of the experiment. The elution volume from each NAP10 column was 1.2 mL. […] Trypsin digestion reactions were incubated for 1 hour at 30° C. and then for 17 hours at room temperature (23° C.). Following the Trypsin digest, the samples were lyophilized to dryness overnight and then resuspended in a volume of approximately 100 μL water and analyzed using LC-MS. A Symmetry C18 HPLC column (Waters, Franklin, Mass.; 3.5 μm; 4.6 mm×75 mm) and a Waters Alliance liquid chromatography system (Waters 2695, Franklin, Mass., USA) coupled to a Micromass single quadropole mass detector (Micromass ZMD, Manchester, UK) were used to analyze fragments from trypsin-digested human ERCC1. The mobile phase contained 0.1% of formic acid throughout the run and the flow rate was 0.35 mL/min. […]

[6] = Female Non-Smokers receiving paclitaxel and cisplatin
[7] = Females receiving paclitaxel and cisplatin
[8] = Male & Female Non-Smokers receiving paclitaxel and cisplatin

Sequence of ROS1 kinase (P08922 1883-2347): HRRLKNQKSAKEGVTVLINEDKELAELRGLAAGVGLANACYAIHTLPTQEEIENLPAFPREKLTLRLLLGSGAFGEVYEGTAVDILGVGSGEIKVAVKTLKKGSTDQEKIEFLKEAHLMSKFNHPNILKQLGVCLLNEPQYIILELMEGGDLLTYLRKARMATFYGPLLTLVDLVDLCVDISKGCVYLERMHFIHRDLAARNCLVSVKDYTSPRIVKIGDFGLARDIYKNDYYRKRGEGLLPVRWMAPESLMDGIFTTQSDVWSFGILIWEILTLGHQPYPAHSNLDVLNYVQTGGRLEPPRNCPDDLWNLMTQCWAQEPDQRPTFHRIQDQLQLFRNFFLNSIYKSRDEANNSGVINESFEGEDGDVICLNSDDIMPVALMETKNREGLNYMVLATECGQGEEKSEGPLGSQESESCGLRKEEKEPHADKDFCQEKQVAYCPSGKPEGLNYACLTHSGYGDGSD
T2 sequence (P07992 whole entry, the tested form may be a part): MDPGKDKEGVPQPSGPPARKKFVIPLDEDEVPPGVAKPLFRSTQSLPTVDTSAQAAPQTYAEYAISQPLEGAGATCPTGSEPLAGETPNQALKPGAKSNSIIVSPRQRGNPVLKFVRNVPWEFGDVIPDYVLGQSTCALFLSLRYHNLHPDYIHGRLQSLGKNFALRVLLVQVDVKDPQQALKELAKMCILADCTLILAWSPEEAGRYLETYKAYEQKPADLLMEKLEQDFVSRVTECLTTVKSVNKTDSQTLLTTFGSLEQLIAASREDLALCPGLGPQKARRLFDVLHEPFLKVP

What does the source list for O=S(=O)([O-])CCSSCCS(=O)(=O)[O-].[Na+].[Na+] [Tavocept, disodium 2,2′-dithio-bis-ethane sulfonate]?
Tavocept in plasma ([1]; 41 g/m^2 Tavocept): ~14 mM; concentrations achieved in the clinic ([1]; as high as): ≤ 18000 µM; plasma levels pharmacologically achievable ([1]; doses of 18.4 g/m^2 and higher): ≥ 8 mM; pharmacologically achievable concentrations ([1]; in vivo): 6-10 mM; plasma concentrations achieved in clinical trials ([1]; in vivo): 10000 µM; Cmax ([1]; read-out: Cmax values in plasma, typical, doses as high as 41 g/m^2): 10000 µM; Cmax ([1]; read-out: Cmax values in plasma, dose of 18.4 g/m^2): ≥ 10000 µM and 10000 µM; Cmax ([1]; read-out: typical Cmax values, administered at 18 g/m^2): 10000 µM; Inhibition of ROS1 kinase [2]: directly inhibit ROS1 kinase in a time-dependent manner; Effect on Crizotinib inhibition of ROS1 kinase ([2]; Tavocept incubated with ROS1 kinase prior to initiation of the kinase assays): potentiation of Crizotinib inhibition; Modification of ROS1 kinase ([2]; time dependent): BNP7787 xenobiotically modifies ROS1 kinase in; Trx migration on IEF gel [3]: shift in Trx migration; Median survival [4, 6]: 27.0 months; Median survival advantage vs placebo [4, 6]: 13.6 months; Median survival [4, 7]: 25.0 months; Median survival advantage vs placebo [4, 7]: 11.8 months; Median survival [4, 8]: 25.2 months; Median survival advantage vs placebo [4, 8]: 12 months; Median survival advantage vs placebo ([4]; PS 1 ECOG Performance Status subjects): 2.82 months; Median survival advantage vs placebo ([4]; PS 1 ECOG females receiving paclitaxel and cisplatin): 11.1 months; Median survival advantage vs placebo ([4]; PS 1 ECOG males and females receiving paclitaxel and cisplatin): 4.0 months; Median survival ([4]; Stage IV M1b subjects): 11.33 months; 2-year survival ([4]; all females receiving paclitaxel and cisplatin): 51%; 2-year survival ([4]; all subjects receiving paclitaxel and cisplatin): 30%; Overall median survival advantage vs placebo ([4]; all subjects, paclitaxel or docetaxel plus cisplatin, P=0.723): greater than 2 month; Protection against chemotherapy-induced kidney toxicity ([4]; compared to placebo, P=0.0528): improvement in the relative creatine decrease from baseline; Anemia ([4]; compared to the placebo arm): reduced anemia; 2-year survival ([4]; female non-smokers receiving paclitaxel and cisplatin): 72.4%; Median survival advantage vs placebo ([4]; female subjects >=65 years receiving paclitaxel and cisplatin): 2.1 months; Median survival ([4]; female subjects receiving paclitaxel plus cisplatin, Newly Diagnosed): 25.0 months; Median survival ([4]; female subjects receiving paclitaxel plus cisplatin, no subsequent therapy): 14.2 months; Survival vs placebo ([4]; female subjects with CNS Metastases, paclitaxel plus cisplatin, P=0.0343): Survival advantage in favor of Tavocept; 2-year survival ([4]; male and female non-smokers receiving paclitaxel and cisplatin): 63%; Median survival advantage vs placebo ([4]; male and female subjects >=65 years receiving paclitaxel and cisplatin): 3.5 months; Median survival ([4]; male and female subjects receiving paclitaxel plus cisplatin, Newly Diagnosed): 15.3 months; Median survival ([4]; male and female subjects receiving paclitaxel plus cisplatin, no subsequent therapy): 10.0 months; Median period of additional survival after starting new chemotherapy, longer than placebo ([4]; patients previously receiving Tavocept, paclitaxel and cisplatin): 3.4 months; Median overall survival from randomization ([4]; patients receiving post-study new chemotherapy, paclitaxel and cisplatin): 23.0 months; Median survival ([4]; subjects Newly Diagnosed at enrollment): 14.19 months; Median survival advantage vs placebo ([4]; subjects greater than or equal to 65 years of age): 3 months; Median survival ([4]; subjects who received paclitaxel and cisplatin): 15.4 months; Median survival advantage vs placebo ([4]; subjects who received paclitaxel and cisplatin instead of docetaxel and cisplatin): 3.68 months; Median survival ([4]; subjects with CNS Metastases present): 11.76 months; Overall survival, patients receiving post study therapy ([4]; vs 9.2 months placebo): 12.2 months; ERCC1 cysteine xenobiotically modified [5]: Cys238; also recorded: Cys274
